Values quoted from earlier work, collected in US20070219250A1, “Pharmaceutical Compositions of Nateglinide” (priority 2003, published 2007).

Solubility in water: insoluble
SMILES: CC(C)[C@H]1CC[C@H](C(=O)N[C@H](Cc2ccccc2)C(=O)O)CC1 [Nateglinide]
